Measured values from article PMC5218480 (PLoS ONE, 2017).

System: MV-4-11 cells
Experiment: Gene expression microarray analysis (Affymetrix PrimeView) and GSEA
Format: cell-based, human
Design: RFU PODN (11730768_x_at) / Fold change /veh PODN (11730768_x_at) / RFU LINC00158 (11744669_a_at) / Fold change /veh LINC00158 (11744669_a_at) / RFU DUSP10 (11751237_a_at) / Fold change /veh DUSP10 (11751237_a_at) / RFU ID3 (11757404_x_at) / Fold change /veh ID3 (11757404_x_at) / RFU PLEKHG5 (11737974_s_at) / Fold change /veh PLEKHG5 (11737974_s_at) / RFU LRRC4B (11730491_at) / Fold change /veh LRRC4B (11730491_at) / RFU GIMAP4 (11747438_a_at) / Fold change /veh GIMAP4 (11747438_a_at) / RFU KRT8 (11758183_x_at) / Fold change /veh KRT8 (11758183_x_at) / RFU CNN1 (11734310_a_at) / Fold change /veh CNN1 (11734310_a_at) / RFU VPS37D (11726825_at) / Fold change /veh VPS37D (11726825_at) / RFU C10orf10 (11716522_x_at) / Fold change /veh C10orf10 (11716522_x_at) / RFU KIR2DL2 /// KIR2DL4 /// KIR2DL5A /// KIR2DL5B /// KIR2DS1 /// KIR2DS2 /// KIR2DS3 /// KIR2DS4 /// KIR3DL3 /// KIR3DL3 /// KIR3DS1 (11738374_at) / Fold change /veh KIR2DL2 /// KIR2DL4 /// KIR2DL5A /// KIR2DL5B /// KIR2DS1 /// KIR2DS2 /// KIR2DS3 /// KIR2DS4 /// KIR3DL3 /// KIR3DL3 /// KIR3DS1 (11738374_at) / RFU C1QL1 (11718748_at) / Fold change /veh C1QL1 (11718748_at) / RFU TMPRSS4 (11747572_a_at) / Fold change /veh TMPRSS4 (11747572_a_at) / RFU HAMP (11756126_x_at) / Fold change /veh HAMP (11756126_x_at) / RFU RNFT2 (11725882_a_at) / Fold change /veh RNFT2 (11725882_a_at) / RFU NR4A2 (11747474_a_at) / Fold change /veh NR4A2 (11747474_a_at) / RFU ABCC12 (11746883_a_at) / Fold change /veh ABCC12 (11746883_a_at) / RFU TMEM136 (11760407_x_at) / Fold change /veh TMEM136 (11760407_x_at) / RFU CLDN22 /// WWC2 (11732394_at) / Fold change /veh CLDN22 /// WWC2 (11732394_at) / RFU HLA-DPB1 (11760878_x_at) / Fold change /veh HLA-DPB1 (11760878_x_at) / RFU SPINT1 (11716480_a_at) / Fold change /veh SPINT1 (11716480_a_at) / RFU GAP43 (11754022_s_at) / Fold change /veh GAP43 (11754022_s_at) / RFU A4GNT (11735810_at) / Fold change /veh A4GNT (11735810_at) / RFU PRB3 (11715151_x_at) / Fold change /veh PRB3 (11715151_x_at) / RFU TUBB4B (11761932_at) / Fold change /veh TUBB4B (11761932_at) / RFU CAPN14 (11732068_a_at) / Fold change /veh CAPN14 (11732068_a_at) / RFU TMCC2 (11721928_a_at) / Fold change /veh TMCC2 (11721928_a_at) / RFU IRGQ (11745062_a_at) / Fold change /veh IRGQ (11745062_a_at) / RFU FAM174B (11720279_a_at) / Fold change /veh FAM174B (11720279_a_at) / RFU TMPRSS4 (11748680_a_at) / Fold change /veh TMPRSS4 (11748680_a_at) / RFU FAM212B (11763350_a_at) / Fold change /veh FAM212B (11763350_a_at) / RFU PLEKHG5 (11743358_a_at) / Fold change /veh PLEKHG5 (11743358_a_at) / RFU ZSCAN30 (11745921_a_at) / Fold change /veh ZSCAN30 (11745921_a_at) / RFU CMKLR1 (11741424_a_at) / Fold change /veh CMKLR1 (11741424_a_at) / RFU LOC101060620 /// MAPK8IP1 (11723275_at) / Fold change /veh LOC101060620 /// MAPK8IP1 (11723275_at) / RFU SPTSSB (11747773_x_at) / Fold change /veh SPTSSB (11747773_x_at) / RFU PRSS12 (11739890_at) / Fold change /veh PRSS12 (11739890_at) / RFU BIN1 (11741810_x_at) / Fold change /veh BIN1 (11741810_x_at) / RFU WNT11 (11732464_a_at) / Fold change /veh WNT11 (11732464_a_at) / RFU C10orf10 (11716521_a_at) / Fold change /veh C10orf10 (11716521_a_at) / RFU C5orf56 (11738089_at) / Fold change /veh C5orf56 (11738089_at) / RFU CYB561 (11721691_x_at) / Fold change /veh CYB561 (11721691_x_at) / RFU ANKRD19P (11752326_a_at) / Fold change /veh ANKRD19P (11752326_a_at) / RFU OR2T12 /// OR2T33 /// OR2T8 (11738714_s_at) / Fold change /veh OR2T12 /// OR2T33 /// OR2T8 (11738714_s_at) / RFU VCAN (11748164_a_at) / Fold change /veh VCAN (11748164_a_at) / RFU JSRP1 (11732532_at) / Fold change /veh JSRP1 (11732532_at) / RFU KRTAP10-11 (11738290_x_at) / Fold change /veh KRTAP10-11 (11738290_x_at) / RFU MYO3A (11730013_a_at) / Fold change /veh MYO3A (11730013_a_at) / RFU EBF3 (11725865_a_at) / Fold change /veh EBF3 (11725865_a_at) / RFU CAMK2N1 (11719241_x_at) / Fold change /veh CAMK2N1 (11719241_x_at) / RFU C5orf56 (11738088_a_at) / Fold change /veh C5orf56 (11738088_a_at) / RFU OLFML3 (11715873_a_at) / Fold change /veh OLFML3 (11715873_a_at) / RFU LOC100653217 /// NTM (11731650_a_at) / Fold change /veh LOC100653217 /// NTM (11731650_a_at) / RFU MAPK11 (11762145_a_at) / Fold change /veh MAPK11 (11762145_a_at) / RFU FIZ1 (11724087_x_at) / Fold change /veh FIZ1 (11724087_x_at) / RFU OASL (11726364_x_at) / Fold change /veh OASL (11726364_x_at) / RFU SOX15 (11748057_x_at) / Fold change /veh SOX15 (11748057_x_at) / RFU CD79A (11719716_a_at) / Fold change /veh CD79A (11719716_a_at) / RFU HIST1H1D (11736915_at) / Fold change /veh HIST1H1D (11736915_at) / RFU CASKIN2 (11723855_a_at) / Fold change /veh CASKIN2 (11723855_a_at) / RFU LOC730098 (11760151_x_at) / Fold change /veh LOC730098 (11760151_x_at) / RFU OR4N2 (11742367_at) / Fold change /veh OR4N2 (11742367_at) / RFU PRRT2 (11749266_a_at) / Fold change /veh PRRT2 (11749266_a_at) / RFU SNX32 (11753110_a_at) / Fold change /veh SNX32 (11753110_a_at) / RFU CDHR5 (11726645_a_at) / Fold change /veh CDHR5 (11726645_a_at) / RFU RCAN1 (11760418_a_at) / Fold change /veh RCAN1 (11760418_a_at) / RFU FAM167A (11723789_a_at) / Fold change /veh FAM167A (11723789_a_at) / RFU FAM26E (11764081_at) / Fold change /veh FAM26E (11764081_at) / RFU ISYNA1 (11749810_s_at) / Fold change /veh ISYNA1 (11749810_s_at) / RFU ACY1 (11761880_at) / Fold change /veh ACY1 (11761880_at) / RFU 11764098_at / Fold change /veh 11764098_at / RFU SAMD14 (11745864_x_at) / Fold change /veh SAMD14 (11745864_x_at) / RFU NPB (11741838_a_at) / Fold change /veh NPB (11741838_a_at) / RFU TMPRSS6 (11731388_a_at) / Fold change /veh TMPRSS6 (11731388_a_at) / RFU KRTAP10-2 (11738614_at) / Fold change /veh KRTAP10-2 (11738614_at) / RFU ARHGAP8 /// PRR5-ARHGAP8 (11727945_x_at) / Fold change /veh ARHGAP8 /// PRR5-ARHGAP8 (11727945_x_at) / RFU KRTAP5-7 /// NADSYN1 (11734609_at) / Fold change /veh KRTAP5-7 /// NADSYN1 (11734609_at) / RFU RASL12 (11751679_a_at) / Fold change /veh RASL12 (11751679_a_at) / RFU CDKN2B (11736163_a_at) / Fold change /veh CDKN2B (11736163_a_at) / RFU PRF1 (11729649_at) / Fold change /veh PRF1 (11729649_at) / RFU, ZNF638 /// ZNF638-IT1 / Fold change vs veh, ZNF638 /// ZNF638-IT1 / RFU, PANK3 / Fold change vs veh, PANK3 / RFU, SH3YL1 / Fold change vs veh, SH3YL1 / RFU, ZEB2 / Fold change vs veh, ZEB2 / RFU, NRIP1 / Fold change vs veh, NRIP1 / RFU, PTTG1IP / Fold change vs veh, PTTG1IP / RFU, CAPN2 / Fold change vs veh, CAPN2 / RFU, MED14 / Fold change vs veh, MED14 / RFU, SNORA58 / Fold change vs veh, SNORA58 / RFU, C1orf63 / Fold change vs veh, C1orf63 / RFU, LRRFIP1 / Fold change vs veh, LRRFIP1 / RFU, NDUFAF7 / Fold change vs veh, NDUFAF7 / RFU, SLC12A2 / Fold change vs veh, SLC12A2 / RFU, IBTK / Fold change vs veh, IBTK / RFU, ESF1 / Fold change vs veh, ESF1 / Fold change vs veh, TMEM50B / RFU, TAOK1 / Fold change vs veh, TAOK1 / RFU, ACBD3 / Fold change vs veh, ACBD3 / RFU, TMA16 / Fold change vs veh, TMA16 / RFU, RWDD3 / Fold change vs veh, RWDD3 / RFU, BCAT1 / Fold change vs veh, BCAT1 / RFU, EDEM3 / Fold change vs veh, EDEM3 / RFU, TMEM33 / Fold change vs veh, TMEM33 / RFU, WDR75 / Fold change vs veh, WDR75 / RFU, AHCTF1 / Fold change vs veh, AHCTF1 / RFU, TFRC / Fold change vs veh, TFRC / RFU, ZDHHC17 / Fold change vs veh, ZDHHC17 / RFU, NOM1 / Fold change vs veh, NOM1 / RFU, ARL8B / Fold change vs veh, ARL8B / RFU, ZBTB11 / Fold change vs veh, ZBTB11 / RFU, TAMM41 / Fold change vs veh, TAMM41 / RFU, KIAA1704 /// LOC100996395 / Fold change vs veh, KIAA1704 /// LOC100996395 / RFU, ING1 / Fold change vs veh, ING1 / RFU, TRMT61B / Fold change vs veh, TRMT61B / RFU, FUBP3 / Fold change vs veh, FUBP3 / RFU, TP53 / Fold change vs veh, TP53 / RFU, TNKS2 / Fold change vs veh, TNKS2 / RFU, ZFP14 / Fold change vs veh, ZFP14 / RFU, ACTR2 / Fold change vs veh, ACTR2 / RFU, PPP3R1 / Fold change vs veh, PPP3R1 / RFU, PIK3R1 / Fold change vs veh, PIK3R1 / RFU, HNRNPA1 / Fold change vs veh, HNRNPA1 / RFU, RNF170 / Fold change vs veh, RNF170 / RFU, ZNF28 / Fold change vs veh, ZNF28 / RFU, RNGTT / Fold change vs veh, RNGTT / RFU, OGT / Fold change vs veh, OGT / RFU, BRD1 / Fold change vs veh, BRD1 / RFU, MARS / Fold change vs veh, MARS / RFU, ZNF655 / Fold change vs veh, ZNF655 / RFU, FAHD1 / Fold change vs veh, FAHD1 / RFU, BDP1 / Fold change vs veh, BDP1 / RFU, LRRCC1 / Fold change vs veh, LRRCC1 / RFU, ARID1A / Fold change vs veh, ARID1A / RFU, ZNF146 / Fold change vs veh, ZNF146 / RFU, ZNF330 / Fold change vs veh, ZNF330 / RFU, GPN3 / Fold change vs veh, GPN3 / RFU, C9orf123 / Fold change vs veh, C9orf123 / RFU, N4BP2L2 / Fold change vs veh, N4BP2L2 / RFU, ARFIP1 / Fold change vs veh, ARFIP1 / RFU, FAM179B / Fold change vs veh, FAM179B / RFU, BCL10 / Fold change vs veh, BCL10 / RFU, UHRF1BP1L / Fold change vs veh, UHRF1BP1L / RFU, BET1 / Fold change vs veh, BET1 / RFU, CNOT2 / Fold change vs veh, CNOT2 / RFU, ZNF268 / Fold change vs veh, ZNF268 / Fold change vs veh, ZNF507 / RFU, DGCR2 / Fold change vs veh, DGCR2 / RFU, WDSUB1 / Fold change vs veh, WDSUB1 / Fold change vs veh, HSP90B1 /// MIR3652 / RFU, ADSS / Fold change vs veh, ADSS / RFU, GK / Fold change vs veh, GK / RFU, ZNF148 / Fold change vs veh, ZNF148 / RFU, TAF9 / Fold change vs veh, TAF9 / RFU, SLC1A5 / Fold change vs veh, SLC1A5 / RFU, SLMO2 / Fold change vs veh, SLMO2 / RFU, ABCC4 / Fold change vs veh, ABCC4 / RFU, LOC101060439 /// RAP1B / Fold change vs veh, LOC101060439 /// RAP1B / RFU, RFX7 / Fold change vs veh, RFX7 / RFU, GTPBP10 / Fold change vs veh, GTPBP10 / RFU, CNEP1R1 / Fold change vs veh, CNEP1R1 / RFU, BIVM-ERCC5 /// ERCC5 / Fold change vs veh, BIVM-ERCC5 /// ERCC5 / RFU, ILF3 / Fold change vs veh, ILF3 / RFU 11762660_at / Fold change /veh 11762660_at / RFU VCAN (11757783_s_at) / Fold change /veh VCAN (11757783_s_at) / RFU DDX43 (11728927_at) / Fold change /veh DDX43 (11728927_at) / RFU KRT8 (11758188_x_at) / Fold change /veh KRT8 (11758188_x_at) / RFU NKD1 (11759106_at) / Fold change /veh NKD1 (11759106_at) / RFU SRD5A1 (11742802_a_at) / Fold change /veh SRD5A1 (11742802_a_at) / RFU TPSAB1 /// TPSB2 (11721975_s_at) / Fold change /veh TPSAB1 /// TPSB2 (11721975_s_at) / RFU GSTM3 (11746129_a_at) / Fold change /veh GSTM3 (11746129_a_at) / RFU IL23R (11737362_x_at) / Fold change /veh IL23R (11737362_x_at) / RFU TMEM51 (11727254_a_at) / Fold change /veh TMEM51 (11727254_a_at) / RFU PIWIL2 (11732686_x_at) / Fold change /veh PIWIL2 (11732686_x_at) / RFU ORM1 (11744905_x_at) / Fold change /veh ORM1 (11744905_x_at) / RFU CCDC152 (11743942_at) / Fold change /veh CCDC152 (11743942_at) / RFU ECM1 (11717891_a_at) / Fold change /veh ECM1 (11717891_a_at) / RFU IL23R (11748794_a_at) / Fold change /veh IL23R (11748794_a_at) / RFU TNFAIP8L3 (11732012_x_at) / Fold change /veh TNFAIP8L3 (11732012_x_at) / RFU MBOAT4 (11741988_at) / Fold change /veh MBOAT4 (11741988_at) / RFU 11764193_at / Fold change /veh 11764193_at / RFU TMEM53 (11763286_at) / Fold change /veh TMEM53 (11763286_at) / RFU MAGEB2 (11727129_at) / Fold change /veh MAGEB2 (11727129_at) / RFU TMEM200A (11744735_a_at) / Fold change /veh TMEM200A (11744735_a_at) / RFU CCDC152 (11751479_a_at) / Fold change /veh CCDC152 (11751479_a_at) / RFU FAM211A (11726209_a_at) / Fold change /veh FAM211A (11726209_a_at) / RFU RGS16 (11746705_a_at) / Fold change /veh RGS16 (11746705_a_at) / RFU VCAN (11755009_s_at) / Fold change /veh VCAN (11755009_s_at) / RFU RHOB (11743442_s_at) / Fold change /veh RHOB (11743442_s_at) / RFU RGS16 (11720943_a_at) / Fold change /veh RGS16 (11720943_a_at) / RFU RGS16 (11720944_at) / Fold change /veh RGS16 (11720944_at) / RFU, VPS4B / Fold change vs veh, VPS4B / RFU, CREB1 / Fold change vs veh, CREB1 / RFU, DNAJC13 / Fold change vs veh, DNAJC13 / RFU, GNAQ / Fold change vs veh, GNAQ / RFU, CDK5R1 / Fold change vs veh, CDK5R1 / RFU, ZRANB3 / Fold change vs veh, ZRANB3 / RFU, CUL4A / Fold change vs veh, CUL4A / RFU, CCNY / Fold change vs veh, CCNY / RFU, UFL1 / Fold change vs veh, UFL1 / RFU, COG3 / Fold change vs veh, COG3 / RFU, DIAPH2 / Fold change vs veh, DIAPH2 / RFU, SKA2 / Fold change vs veh, SKA2 / RFU, AFF3 / Fold change vs veh, AFF3 / RFU, LMF1 / Fold change vs veh, LMF1 / RFU, IPO11 / Fold change vs veh, IPO11 / RFU, DFFB / Fold change vs veh, DFFB / RFU, FOXP1 / Fold change vs veh, FOXP1 / RFU, CARD8 / Fold change vs veh, CARD8 / RFU, STRN3 / Fold change vs veh, STRN3 / RFU, ADK / Fold change vs veh, ADK / RFU, RASSF2 / Fold change vs veh, RASSF2 / RFU, WIPF1 / Fold change vs veh, WIPF1 / RFU, LARP1B / Fold change vs veh, LARP1B / RFU, RASA1 / Fold change vs veh, RASA1 / RFU, RB1 / Fold change vs veh, RB1 / RFU, PPFIA1 / Fold change vs veh, PPFIA1 / RFU, MAT2A / Fold change vs veh, MAT2A / RFU, CCT5 / Fold change vs veh, CCT5 / RFU, WDR92 / Fold change vs veh, WDR92 / RFU, CUX1 / Fold change vs veh, CUX1 / RFU, TTC7A / Fold change vs veh, TTC7A / RFU, TMEM135 / Fold change vs veh, TMEM135 / RFU, DEPTOR / Fold change vs veh, DEPTOR / RFU, CPM / Fold change vs veh, CPM / RFU, DNAJB6 / Fold change vs veh, DNAJB6 / RFU, CACNA2D3 / Fold change vs veh, CACNA2D3 / RFU, DTX4 / Fold change vs veh, DTX4 / RFU, TFCP2 / Fold change vs veh, TFCP2 / RFU, GMCL1 /// GMCL1P1 / Fold change vs veh, GMCL1 /// GMCL1P1 / RFU, AEBP2 / Fold change vs veh, AEBP2 / RFU, SNHG1 /// SNORD22 /// SNORD25 /// SNORD26 /// SNORD27 /// SNORD28 /// SNORD29 /// SNORD31 / Fold change vs veh, SNHG1 /// SNORD22 /// SNORD25 /// SNORD26 /// SNORD27 /// SNORD28 /// SNORD29 /// SNORD31 / Fold change (Aza/veh), C12orf56 (ProbeSet 11735607_a_at) / Fold change (ACY-1035/veh), C12orf56 (ProbeSet 11735607_a_at) / Fold change (Aza/veh), FGFR1OP (ProbeSet 11751329_s_at) / Fold change (ACY-1035/veh), FGFR1OP (ProbeSet 11751329_s_at) / Fold change (Aza/veh), VPS36 (ProbeSet 11739960_a_at) / Fold change (ACY-1035/veh), VPS36 (ProbeSet 11739960_a_at) / RFU SYPL1 (11715823_x_at) / Fold change /veh SYPL1 (11715823_x_at) / RFU IGFBP7 (11715501_s_at) / Fold change /veh IGFBP7 (11715501_s_at) / RFU REEP3 (11722064_at) / Fold change /veh REEP3 (11722064_at) / RFU IGLL1 (11728026_x_at) / Fold change /veh IGLL1 (11728026_x_at): dose or concentration left out as unconfirmed
Settings: ProbeSet 11719185_x_at; LIST B

Nc1ncn([C@@H]2O[C@H](CO)[C@@H](O)[C@H]2O)c(=O)n1 [azacitidine]
Fold change vs veh, N4BP2L2: 0.90
